From publication PMC10281575, “PfCRT mutations conferring piperaquine resistance in falciparum malaria shape the kinetics of quinoline drug binding and transport” (PLOS Pathogens, 2023) come the findings set out here.

Molecules are shown by their SMILES. Where “and” joins values, the source holds several entries; their conditions need not be identical. Equal values may be shown once.

In the assay the target is T1, PfCRT^Dd2_M343L (Plasmodium falciparum, UniProt Q8IBZ9, A220S/I356T/K76T/M343L/M74I/N326S/N75E/Q271E/R371I).
T1 construct: expressed in transfected cells; host or cells: Xenopus laevis oocytes injected with in vitro transcribed RNA (pSP64T)
T1 sequence (Q8IBZ9 1-424 M74I/N75E/K76T/A220S/Q271E/N326S/M343L/I356T/R371I): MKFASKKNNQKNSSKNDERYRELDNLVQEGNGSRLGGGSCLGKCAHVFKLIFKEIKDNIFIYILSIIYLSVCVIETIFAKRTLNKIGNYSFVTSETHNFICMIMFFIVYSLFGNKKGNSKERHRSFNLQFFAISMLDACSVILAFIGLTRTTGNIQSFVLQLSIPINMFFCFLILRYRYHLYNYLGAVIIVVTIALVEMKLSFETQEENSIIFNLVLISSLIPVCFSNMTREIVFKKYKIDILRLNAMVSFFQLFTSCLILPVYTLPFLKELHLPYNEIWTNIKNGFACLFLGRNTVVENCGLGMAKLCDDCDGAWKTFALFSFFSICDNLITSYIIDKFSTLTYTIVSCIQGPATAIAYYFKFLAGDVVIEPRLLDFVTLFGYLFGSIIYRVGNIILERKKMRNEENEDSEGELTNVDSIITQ
The assay can be described thus: Verapamil inhibition of PfCRT-mediated CQ and PPQ transport in oocytes, PfCRT^Dd2_M343L. Particulars: individual replicates (S3 Fig). The assay is classed as cell-based. How it is done:
In all cases, the PfCRT-mediated CQ and PPQ transport was inhibited in the presence of 100 μM verapamil (S3 Fig).
Drug transport assays were performed as previously described. Briefly, measurements of radiolabeled drug uptake were made over 1 h, unless otherwise specified. […] Where specified, one or more unlabeled drugs were also present at the indicated concentrations. The direction of drug transport in the assays is from the extracellular medium (pH 6) into the oocyte cytosol (pH 7.2), which corresponds to the efflux of CQ or PPQ from the acidic digestive vacuole (pH 5.2) into the parasite cytosol (pH 7.2). The uptake assays were terminated by removing the oocytes from the reaction medium and washing them three times with 2 mL of ice-cold ND96 buffer. Each oocyte was transferred to a separate scintillation vial and lysed by the addition of 200 μL of a 5% SDS solution. The radioactivity in the sample was measured using a liquid scintillation analyser Tri-Carb 4910 TR (PerkinElmer). Water-injected oocytes were analyzed in parallel as a negative control. The buffer from each condition was measured in duplicate in parallel to each experiment to transform counts per minute into pmol of drug. Drug uptake attributable to PfCRT was determined by subtracting the background uptake from water-injected oocytes from that of PfCRT-expressing oocytes. In all cases, at least three independent experiments were performed on oocytes from different frogs, and for each condition in an experiment, measurements were made from 10 oocytes per treatment.
Supplementary file ppat.1011436.s006.tif: S3 Fig Verapamil inhibits PfCRT-mediated transport of CQ and PPQ. […] Left panels, data is shown as individual biological replicates (coloured symbols) overlaid onto bars representing the Mean ± S.E.M. (error bars). A one-tailed Student’s t-test was performed between untreated (no VP) and treated (+ 100 μM VP) samples, and the obtained p values are shown. Right panels, the uptake in VP-treated samples was divided by the uptake in their corresponding untreated pairs and subtracted from 100% to get the percentage of uptake inhibition mediated by the presence of 100 μM verapamil in the extracellular medium. Error bars are S.E. (TIF) Click here for additional data file.

As for `CCN(CC)CCCC(C)Nc1ccnc2cc(Cl)ccc12` (stereo not drawn) [CQ, chloroquine], the “PfCRTDd2_M343L-mediated CQ transport” value was 1.630 pmol oocyte-1 h-1 and 0.990 pmol oocyte-1 h-1 and 2.400 pmol oocyte-1 h-1 (50 µM CQ + 100 µM VP); 2.130 pmol oocyte-1 h-1 and 3.200 pmol oocyte-1 h-1 and 2.380 pmol oocyte-1 h-1 and 2.370 pmol oocyte-1 h-1 (50 µM CQ).
In the case of `Clc1ccc2c(N3CCN(CCCN4CCN(c5ccnc6cc(Cl)ccc56)CC4)CC3)ccnc2c1` [PPQ, piperaquine], the “PfCRTDd2_M343L-mediated PPQ transport” value (50 µM PPQ + 100 µM VP) is 22.37 pmol oocyte-1 h-1 and 37.53 pmol oocyte-1 h-1 and 41.81 pmol oocyte-1 h-1 and 17.67 pmol oocyte-1 h-1.
